Key:
[1] = system: IL10 secretion by OCI-LY3 ABC-DLBCL cells; experiment: Human IL10 Mesoscale assay (OCI-LY3); assay type: cell-based; details: Homo sapiens, 24 h
How it was run: (§1)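 Compounds tested from 15 μM to 58.6 nM (twofold, 9 concentrations) on 100,000 cells per well over 24 h at 37° C, without beta-mercaptoethanol. Secreted cytokine in supernatant detected by MSD electrochemiluminescence; scaling used DMSO as maximum and RN486 as full inhibition.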

[2] = system: IL6 secretion by OCI-LY3 ABC-DLBCL cells; experiment: Human IL6 Mesoscale assay (OCI-LY3); assay type: cell-based; details: Homo sapiens, 24 h
How it was run: as §1

[3] = target: full-length MALT1 protein (Strep-MALT1(1-824)-His) (Homo sapiens (Human), UniProt Q9UDY8); experiment: MALT1 Biochemical Protease Assay (Ac-LRSR-AMC substrate); details: 10 nM FL MALT1, 200 μM Ac-LRSR-AMC, 4 h at RT; read-out: MALT1_Biochemical activity (Ac-LRSR-amc) IC50
How it was run: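 Full-length MALT1 pre-incubated with compounds (30 μM to 0.5 nM, 11 threefold steps) for 50 min at RT. After Ac-LRSR-AMC was added, the reaction ran 4 h at RT and AMC fluorescence was read. IC50 and Hill slope from curve fitting against no-enzyme and no-compound controls.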

TMD8 cells = experiment: 4-day proliferation assay, TMD8; assay type: cell-based; details: Homo sapiens, 96 h, 4 days incubation, CellTiterGLO, read-out: Anti-proliferation: TMD-8 IC50
How it was run: (§2)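 TMD8 and OCI-Ly3 cells were seeded at 10,000 per well and grown 4 days at 37° C, 5% CO2 without beta-mercaptoethanol. Viability was read by CellTiter-Glo luminescence. IC50 and Hill slope were fitted relative to the low control median.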

OCI-Ly3 cells = experiment: 4-day proliferation assay, OCI-Ly3; assay type: cell-based, human; details: Homo sapiens, 96 h, 4 days incubation, CellTiterGLO, read-out: Anti-proliferation: OCI-LY-3 IC50
How it was run: as §2

[4] = system: IL6 secretion by TMD8 ABC-DLBCL cells; experiment: Human IL6 Mesoscale assay (TMD-8); assay type: cell-based; details: Homo sapiens, TMD8; TMD-8 cells, 24 h
How it was run: as §1

[5] = system: IL10 secretion by TMD8 ABC-DLBCL cells; experiment: Human IL10 Mesoscale assay (TMD-8); assay type: cell-based; details: Homo sapiens, TMD8; TMD-8 cells, 24 h
How it was run: as §1

Sequence of full-length MALT1 protein (Strep-MALT1(1-824)-His) (Q9UDY8 whole entry): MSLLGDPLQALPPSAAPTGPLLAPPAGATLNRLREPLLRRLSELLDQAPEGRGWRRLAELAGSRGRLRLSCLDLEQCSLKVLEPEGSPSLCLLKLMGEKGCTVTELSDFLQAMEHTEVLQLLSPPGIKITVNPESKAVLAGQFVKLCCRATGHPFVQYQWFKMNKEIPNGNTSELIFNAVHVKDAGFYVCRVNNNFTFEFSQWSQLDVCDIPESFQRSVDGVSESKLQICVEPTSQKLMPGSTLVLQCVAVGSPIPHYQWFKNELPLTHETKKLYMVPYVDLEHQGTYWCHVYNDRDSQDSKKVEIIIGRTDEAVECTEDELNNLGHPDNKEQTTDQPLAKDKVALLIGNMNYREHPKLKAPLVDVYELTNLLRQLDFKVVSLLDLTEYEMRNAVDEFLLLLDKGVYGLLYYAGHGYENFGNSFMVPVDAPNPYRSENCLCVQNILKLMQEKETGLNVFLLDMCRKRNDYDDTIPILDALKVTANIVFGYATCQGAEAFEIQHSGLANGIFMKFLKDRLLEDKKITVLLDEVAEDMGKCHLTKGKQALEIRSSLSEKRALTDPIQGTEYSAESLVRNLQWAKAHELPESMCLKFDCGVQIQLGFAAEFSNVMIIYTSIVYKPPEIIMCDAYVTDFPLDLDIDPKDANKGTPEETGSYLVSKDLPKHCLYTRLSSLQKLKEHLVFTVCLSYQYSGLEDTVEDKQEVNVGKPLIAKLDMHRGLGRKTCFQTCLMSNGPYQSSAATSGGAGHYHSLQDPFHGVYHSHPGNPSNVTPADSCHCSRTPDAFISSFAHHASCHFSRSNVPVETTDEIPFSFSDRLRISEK

Row | Compound | IC50 [1] [nM] | IC50 [2] [nM] | IC50 [3] [nM] | IC50 (OCI-Ly3 cells) [nM] | IC50 [4] [nM] | IC50 [5] [nM] | IC50 (TMD8 cells) [nM]
1 | Cc1nc(-n2nccn2)c(Cl)cc1NC(=O)c1cnn(-c2cccc3c(=O)[nH]ccc23)c1C(F)(F)F [Cpd 112, N-(5-chloro-2-methyl-6-(2H-1,2,3-triazol-2-yl)pyridin-3-yl)-1-(1-oxo-1,2-dihydroisoquinolin-5-yl)-5-(trifluoromethyl)-1H-pyrazole-4-carboxamide] | 98 | 115 | 17 | 966 | – | – | 6310
2 | O=C(Nc1cnc(-n2cc(CO)cn2)c(Cl)c1)c1cnn(-c2cccc3c(=O)[nH]ccc23)c1C(F)(F)F [Cpd 182, N-(5-chloro-6-(4-(hydroxymethyl)-1H-pyrazol-1-yl)pyridin-3-yl)-1-(1-oxo-1,2-dihydroisoquinolin-5-yl)-5-(trifluoromethyl)-1H-pyrazole-4-carboxamide] | – | – | 35 | 3140 | 7590 | 2510 | 5250
3 | Cn1ccc(-c2ncc(NC(=O)c3cnn(-c4cncc5ccccc45)c3C(F)(F)F)cc2C#N)n1 [Cpd 78, N-(5-cyano-6-(1-methyl-1H-pyrazol-3-yl)pyridin-3-yl)-1-(isoquinolin-4-yl)-5-(trifluoromethyl)-1H-pyrazole-4-carboxamide] | – | – | 55 | ~490 | 81 | 112 | 7590
4 | COC(=O)c1cc(NC(=O)c2cnn(-c3cncc4ccccc34)c2C(F)(F)F)cc(Cl)n1 [Cpd 74, Methyl 6-chloro-4-(1-(isoquinolin-4-yl)-5-(trifluoromethyl)-1H-pyrazole-4-carboxamido)picolinate] | – | – | 372 | 2450 | 1380 | 1380 | > 20000

More lines, main results first:

Row | IC50 [1] [nM] | IC50 [2] [nM] | IC50 [3] [nM] | IC50 (OCI-Ly3 cells) [nM] | IC50 [4] [nM] | IC50 [5] [nM] | Compound | IC50 (TMD8 cells) [nM]
5 | – | 1660 | 15 | 1120 | – | – | Cn1c(=O)cc(-n2ncc(C(=O)Nc3cnc(-n4nccn4)c(Cl)c3)c2C(F)(F)F)c2ccccc21 [Cpd 419, N-(5-chloro-6-(2H-1,2,3-triazol-2-yl)pyridin-3-yl)-1-(1-methyl-2-oxo-1,2-dihydroquinolin-4-yl)-5-(trifluoromethyl)-1H-pyrazole-4-carboxamide] | 5750
6 | – | – | 44 | 513 | 457 | 178 | O=C(Nc1cnc(-n2nccn2)c(Cl)c1)c1cnn(-c2cc[n+]([O-])c3ccccc23)c1C(F)(F)F [Cpd 405, 4-(4-((5-chloro-6-(2H-1,2,3-triazol-2-yl)pyridin-3-yl)carbamoyl)-5-(trifluoromethyl)-1H-pyrazol-1-yl)quinoline 1-oxide] | 4360
7 | – | – | 49 | 516 | 8320 | 2460 | N#Cc1cc(NC(=O)c2cnn(-c3ccc(F)c4ccccc34)c2C(F)(F)F)cnc1-n1nccn1 [Cpd 312, N-(5-cyano-6-(2H-1,2,3-triazol-2-yl)pyridin-3-yl)-1-(4-fluoronaphthal-1-yl)-5-(trifluoromethyl)-1H-pyrazole-4-carboxamide] | 501
8 | – | – | 32 | 585 | 4270 | 1000 | O=C(Nc1cnc(-n2nccn2)c(Cl)c1)c1cnn(-c2c[nH]c(=O)c3c(F)cccc23)c1C(F)(F)F [Cpd 184, N-(5-chloro-6-(2H-1,2,3-triazol-2-yl)pyridin-3-yl)-1-(8-fluoro-1-oxo-1,2-dihydroisoquinolin-4-yl)-5-(trifluoromethyl)-1H-pyrazole-4-carboxamide] | 6030
9 | – | – | 8 | 282 | 457 | 178 | N#Cc1cc(NC(=O)c2cnn(-c3ccnc4ccoc34)c2C(F)(F)F)cnc1-n1nccn1 [Cpd 150, N-(5-cyano-6-(2H-1,2,3-triazol-2-yl)pyridin-3-yl)-1-(furo[3,2-b]pyridin-7-yl)-5-(trifluoromethyl)-1H-pyrazole-4-carboxamide] | > 7940

Source: patent US10954214B2 (Janssen Pharmaceutica NV, priority 2016, dated 2021)
